From patent US8802064B2, “Inhibitors of fatty acid amide hydrolase” (Infinity Pharmaceuticals, Inc., priority 2009, dated 2014)

Target: T1, human FAAH (Homo sapiens, UniProt O00519)
T1 construct: host or cells: COS-7 cells, transient transfection (FuGENE 6); 13,000 g membrane fraction solubilised in 1% Triton X-100
T1 sequence (O00519 1-579): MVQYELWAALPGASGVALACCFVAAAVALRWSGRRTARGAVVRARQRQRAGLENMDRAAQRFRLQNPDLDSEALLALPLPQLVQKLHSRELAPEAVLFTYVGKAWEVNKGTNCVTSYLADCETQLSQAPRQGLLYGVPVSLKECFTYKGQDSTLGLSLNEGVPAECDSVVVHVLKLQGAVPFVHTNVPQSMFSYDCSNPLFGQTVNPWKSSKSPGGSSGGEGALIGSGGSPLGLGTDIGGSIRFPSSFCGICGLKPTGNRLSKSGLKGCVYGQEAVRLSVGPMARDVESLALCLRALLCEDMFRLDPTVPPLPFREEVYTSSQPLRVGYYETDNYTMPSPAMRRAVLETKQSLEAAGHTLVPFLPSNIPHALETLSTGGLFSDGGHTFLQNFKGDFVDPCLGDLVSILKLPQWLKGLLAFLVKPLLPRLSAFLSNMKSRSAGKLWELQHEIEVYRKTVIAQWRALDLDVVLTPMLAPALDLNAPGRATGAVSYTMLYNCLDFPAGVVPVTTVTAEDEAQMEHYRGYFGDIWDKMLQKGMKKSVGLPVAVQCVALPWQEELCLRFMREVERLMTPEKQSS
Assay: Human FAAH inhibition assay (fluorescence, AMC arachidonoyl amide hydrolysis)
Type: biochemical
Conditions: human FAAH from transfected COS-7 cells; 20 μM AMC arachidonoyl amide; 30 min preincubation, 4 h reaction at room temperature
Procedure: Exemplary compounds are set forth in the Examples provided below. Compounds were assayed as inhibitors of human FAAH using the method described in detail in Example 16.
The following assays were used to determine the inhibition of FAAH: (1) a fluorescence-based assay (Manjunath et al., Analytical Biochemistry (2005) 343:143-151); and (2) a microsome-based fluorescent assay (Wang et al., Biomolecular Screening (2006) 1-9).
COS-7 cells were split the day before, 1:5 into 150 mm×25 mm cell culture dishes (Corning Inc., Cat. No. 430599). Transient transfection took place at 30-40% confluency according to FuGENE 6 Transfection Reagent (Roche, Cat. No. 11814 443 001).
The FuGENE transfection 6 reagent (45 uL) was added to 1410 μL of media (DMEM, serum free without pen/strep) in a 15 mL conical tube and incubated at room temp for 5 minutes, followed by the addition of FAAH plasmid DNA (15 μg) (OriGene Cat. No. TC119221, Genbank Accession No. NM_001441.1, 0.67 ug/uL) and a further incubation of 15 minutes at room temperature. The resulting solution was added into one dish of 30-40% confluent COS-7 cells in a dropwise manner. The COS-7 cell dish was subsequently incubated for 48 hours. The cells were then harvested.
Media was aspirated from the dishes and the cells rinsed with 10 mL PBS. The PBS was removed and 3 mL of PBS added to the dish. The dish was scraped to resuspend the cells, and the subsequent cell suspension collected into a 15 mL conical tube. The cells were pelleted by centrifugation at 1200 rpm for 5 minutes in a bench top centrifuge. PBS was removed and the cell pellet snap frozen in liquid nitrogen and stored at 80° C.
COS-7 Cells FAAH purification: • (1) Fractionation: Frozen cell pellets from transient transfections were thawed on ice and resuspended in 12.5 mM Hepes pH 8.0, 100 mM NaCl, 1 mM EDTA (10 mL/0.2 g cell pellet). The pellets were dounce homogenized and then sonicated to produce cell extract. The cell extract was subsequently centrifuged at 1000 g to remove cellular debris. The pellet was discarded and the supernatant centrifuged at 13,000 g for 20 minutes. The pellet contained membrane bound FAAH. The supernatant was discarded and the pellet resolubilized. • (2) Resolubilization: The fraction of interest, (13,000 g, membrane fraction) was resuspended in 2.3 mL resuspension buffer (20 mM Hepes pH 7.8, 10% v/v Glycerol, 1 mM EDTA, 1% Triton X-100) and the sample incubated on ice for 1 hour and then centrifuged to remove any particulate matter. The supernatant containing solubilized human FAAH was aliquoted and snap frozen in liquid nitrogen and stored at 80° C. until use. • (3) Characterization: Protein Concentration determined by Bradford assay. • SDS gel and Western blot to confirm presence of FAAH • FAAH activity assay • Km determination—96-well assay • Linear dependence—96-well assay • Standard compound Ki determination—384-well assay
Rat FAAH biochemical assays were carried out in a 96 well flat bottom black nontreated polystyrene plates (Corning Costar Catalogue #3915). FAAH reaction buffer: 50 mM Hepes (pH 7.5), 1 mM EDTA, 0.2% Triton X-100. FAAH substrate—AMC Arachidonoyl Amide (Cayman Chemicals Company, Catalog #10005098). The reaction was read in an Envision microtiter plate reader [Excitation filter 355 nm (40 nm bandpass); Emmision filter 460 nm (25 nm bandpass)]. The raw fluorescence was plotted on the y axis and the inhibitor concentration on the x axis to give a dose response inhibition curve. The data was fitted to a single site competitive inhibition equation, fixing the Km for the rat and human enzyme to 12 μM and 9 μM respectively.
The principle of this assay was the hydrolysis of AMC-Arichodonoyl, a fluorescent analogue of Anandamide, which results in the formation of Arachidonic acid and AMC. The formation of AMC results in an increase in fluorescence (see, for example, Manjunath et al., Analytical Biochemistry (2005) 343:143-151; and Wang et al., Biomolecular Screening (2006) 1-9). […]

Row | Ki [µM] | Structure (SMILES)
1 | ≤ 0.01 | O=C1c2ccc(B(O)O)cc2CCN1CCc1ccccc1 [Compound 12]
2 | ≤ 0.01 | O=c1c2ccc(B(O)O)cc2ccn1CCc1ccccc1 [Compound 3]
3 | 0.01 to 0.1 | Cc1nc2cc(B(O)O)ccc2c(=O)n1CCc1ccccc1 [Compound 9]
4 | 0.1 to 1 | O=c1[nH]c(CCc2ccccc2)nc2ccc(B(O)O)cc12 [Compound 14]
5 | 0.01 to 0.1 | CC(Cn1ccc2cc(B(O)O)ccc2c1=O)c1ccccc1 (stereo not drawn) [Compound 5]
6 | ≤ 0.01 | O=c1c2ccc(B(O)O)cc2ncn1CCc1ccccc1 [Compound 10]
7 | > 1 | Cc1nc2cc(B(O)O)ccc2c(=O)n1C [Compound 8]
8 | ≤ 0.01 | O=C1c2ccc(B(O)O)cc2CN1CCc1ccccc1 [Compound 15]

The next lines start with the molecule.

Row | Structure (SMILES) | Ki [µM]
9 | CC(c1ccccc1)n1ccc2cc(B(O)O)ccc2c1=O (stereo not drawn) [Compound 4] | 0.01 to 0.1
10 | O=c1c2ccc(B(O)O)cc2ccn1Cc1ccccc1 [Compound 2] | 0.01 to 0.1
11 | Cn1ccc2cc(B(O)O)ccc2c1=O [Compound 1] | 0.01 to 0.1
12 | O=c1c2ccc(B(O)O)cc2cnn1CCc1ccccc1 [Compound 13] | ≤ 0.01
13 | O=c1c2cc(B(O)O)ccc2ccn1CCc1ccccc1 [Compound 11] | 0.01 to 0.1
14 | CCCCCCn1ccc2cc(B(O)O)ccc2c1=O [Compound 7] | ≤ 0.01
15 | CC(Cc1ccccc1)n1ccc2cc(B(O)O)ccc2c1=O (stereo not drawn) [Compound 6] | 0.01 to 0.1
